Test results as given in patent US12661342B2, “Heteroaryl compounds and therapeutic uses thereof in conditions associated with the alteration of the activity of beta-glucocerebrosidase” (GT GAIN THERAPEUTICS SA, priority 2019, dated 2026).

Each compound was assayed against T1, β-glucocerebrosidase (Homo sapiens, UniProt P04062, L483P) (assay: Enhancement of β-glucocerebrosidase activity measured in Gaucher disease fibroblasts (4-MU-β-D-glucopyranoside substrate, intact cells)). Settings: GBA fibroblasts bearing L444P (GM08760A, homozygous p.L444P); compound at concentrations between 6 and 50 μM; 4 days incubation.
T1 construct: host or cells: human Gaucher disease patient fibroblasts GM08760A
T1 sequence (P04062 40-536 L483P): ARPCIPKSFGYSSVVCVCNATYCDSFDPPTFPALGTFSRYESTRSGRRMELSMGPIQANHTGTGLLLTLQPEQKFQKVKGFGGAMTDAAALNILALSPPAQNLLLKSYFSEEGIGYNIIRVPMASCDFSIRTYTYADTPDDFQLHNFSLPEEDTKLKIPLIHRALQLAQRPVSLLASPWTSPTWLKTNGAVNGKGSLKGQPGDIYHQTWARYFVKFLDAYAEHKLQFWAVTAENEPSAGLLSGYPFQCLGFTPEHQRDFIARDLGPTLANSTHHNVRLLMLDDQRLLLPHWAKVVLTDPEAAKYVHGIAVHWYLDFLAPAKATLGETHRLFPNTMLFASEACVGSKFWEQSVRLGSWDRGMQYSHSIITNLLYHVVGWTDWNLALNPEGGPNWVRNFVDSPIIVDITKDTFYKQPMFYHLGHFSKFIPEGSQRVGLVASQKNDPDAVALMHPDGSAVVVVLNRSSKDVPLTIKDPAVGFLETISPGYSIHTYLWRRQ
Format: cell-based
Parameters: key: Increase in comparison with non-treated of >2.0 fold is shown as A; Increase in comparison with non-treated of >1.7-2.0 fold is shown as B; Increase in comparison with non-treated of 1.2-1.7 fold is shown as C; D means that no increase compared with non-treated cells was detected in this method
How it was run: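 Patient fibroblasts homozygous for p.L444P (GM08760A), grown in DMEM/10% FBS and exposed to compound for 4 days. Intact cells then given 4-MU-β-D-glucopyranoside in 0.1 M acetate pH 4, 1 h, 37 °C; stopped at pH 10.7, 4-MU fluorescence ex 340/em 460. Value is fold increase over untreated cells; binned at 6–50 μM.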

SMILES | Range: increase in enzyme activity in comparison with non-treated cells (Enzyme activity assay for compounds of Examples 33-141)
Nc1cc(Nc2ccc(F)cc2O)cc(C(=O)Nc2ccccc2)n1 [Example 78, 6-Amino-4-((4-fluoro-2-hydroxyphenyl)amino)-N-phenylpicolinamide] | B (Increase in comparison with non-treated of >1.7-2.0 fold is shown as B)
Nc1cc(Nc2ccccn2)cc(C(=O)Nc2ccccc2)n1 [Example 79, 6-Amino-N-phenyl-4-(pyridin-2-ylamino)pyridine-2-carboxamide] | C (Increase in comparison with non-treated of 1.2-1.7 fold is shown as C)
Nc1cc(Nc2cccnc2)cc(C(=O)Nc2ccccc2)n1 [Example 80, 6-Amino-N-phenyl-4-(pyridin-3-ylamino)picolinamide] | C (Increase in comparison with non-treated of 1.2-1.7 fold is shown as C)
Nc1nc(Nc2ccccc2O)cc(C(=O)NC2Cc3ccccc3C2)n1 [Example 81, 2-amino-N-(2,3-dihydro-1H-inden-2-yl)-6-((2-hydroxyphenyl)amino)pyrimidine-4-carboxamide] | B (Increase in comparison with non-treated of >1.7-2.0 fold is shown as B)
CN(C(=O)c1cc(Nc2ccccc2O)nc(N)n1)C1Cc2ccccc2C1 [Example 82, 2-Amino-N-(2,3-dihydro-1H-inden-2-yl)-6-((2-hydroxyphenyl)amino)-N-methylpyrimidine-4-carboxamide] | C (Increase in comparison with non-treated of 1.2-1.7 fold is shown as C)
CN(C(=O)c1cc(Nc2ccccc2O)nc(N)n1)C1CCc2ccccc2C1 (centres unmarked) [Example 83, 2-amino-6-((2-hydroxyphenyl)amino)-N-methyl-N-(1,2,3,4-tetrahydronaphthalen-2-yl)-pyrimidine-4-carboxamide] | D
Nc1nc(Nc2ccccc2O)cc(C(=O)NC2CCc3ccccc3C2)n1 (centres unmarked) [Example 84, 2-Amino-6-((2-hydroxyphenyl)amino)-N-(1,2,3,4-tetrahydronaphthalen-2-yl)pyrimidine-4-carboxamide] | C (Increase in comparison with non-treated of 1.2-1.7 fold is shown as C)
Nc1nc(Nc2ccccc2O)cc(C(=O)N2CCc3ccccc3C2)n1 [Example 85, (2-Amino-6-((2-hydroxyphenyl)amino)pyrimidin-4-yl)(3,4-dihydroisoquinolin-2(1H)-yl)methanone] | C (Increase in comparison with non-treated of 1.2-1.7 fold is shown as C)
Nc1nc(Nc2ccccc2O)cc(C(=O)N2Cc3ccccc3C2)n1 [Example 86, (2-Amino-6-((2-hydroxyphenyl)amino)pyrimidin-4-yl)(isoindolin-2-yl)methanone] | C (Increase in comparison with non-treated of 1.2-1.7 fold is shown as C)
Cc1ccccc1Nc1cc(N)cc(C(=O)NC2Cc3ccccc3C2)n1 [Example 87, 4-Amino-N-(2,3-dihydro-1H-inden-2-yl)-6-(o-tolylamino)picolinamide] | B (Increase in comparison with non-treated of >1.7-2.0 fold is shown as B)
Nc1cc(Nc2ccccc2O)nc(C(=O)N2CCN(c3ccccc3)CC2)c1 [Example 88, (4-Amino-6-((2-hydroxyphenyl)amino)pyridin-2-yl)(4-phenylpiperazin-1-yl)methanone] | C (Increase in comparison with non-treated of 1.2-1.7 fold is shown as C)
Nc1cc(Nc2cccc3c2OCO3)nc(C(=O)NC2Cc3ccccc3C2)c1 [Example 89, 4-Amino-6-(benzo[d][1,3]dioxol-4-ylamino)-N-(2,3-dihydro-1H-inden-2-yl)picolinamide] | C (Increase in comparison with non-treated of 1.2-1.7 fold is shown as C)
Cc1cccc(Nc2cc(N)cc(C(=O)NC3Cc4ccccc4C3)n2)c1F [Example 90, 4-Amino-N-(2,3-dihydro-1H-inden-2-yl)-6-((2-fluoro-3-methylphenyl)amino)picolinamide] | C (Increase in comparison with non-treated of 1.2-1.7 fold is shown as C)
Cc1cccc(Nc2cc(N)cc(C(=O)NC3Cc4ccccc4C3)n2)c1O [Example 91, 4-Amino-N-(2,3-dihydro-1H-inden-2-yl)-6-((2-hydroxy-3-methylphenyl)amino)picolinamide] | B (Increase in comparison with non-treated of >1.7-2.0 fold is shown as B)
Nc1cc(Nc2cccc(F)c2)nc(C(=O)NC2Cc3ccccc3C2)c1 [Example 92, 4-Amino-N-(2,3-dihydro-1H-inden-2-yl)-6-((3-fluorophenyl)amino)picolinamide] | A (Increase in comparison with non-treated of >2.0 fold is shown as A)
COc1ccccc1Nc1cc(N)cc(C(=O)Nc2ccccc2)n1 [Example 93, 4-Amino-6-((2-methoxyphenyl)amino)-N-phenylpicolinamide] | B (Increase in comparison with non-treated of >1.7-2.0 fold is shown as B)
Nc1cc(Nc2cccc3c2OCO3)nc(C(=O)Nc2ccccc2)c1 [Example 94, 4-Amino-6-(benzo[d][1,3]dioxol-4-ylamino)-N-phenylpicolinamide] | B (Increase in comparison with non-treated of >1.7-2.0 fold is shown as B)
Nc1cc(Nc2cccc3c2OCO3)nc(C(=O)N2Cc3ccccc3C2)c1 [Example 95, (4-Amino-6-(benzo[d][1,3]dioxol-4-ylamino)pyridin-2-yl)(isoindolin-2-yl)methanone] | C (Increase in comparison with non-treated of 1.2-1.7 fold is shown as C)
COc1ccccc1Nc1cc(N)cc(C(=O)N2Cc3ccccc3C2)n1 [Example 96, (6-(2-Methoxyphenylamino)-4-aminopyridin-2-yl)(isoindolin-2-yl)methanone] | C (Increase in comparison with non-treated of 1.2-1.7 fold is shown as C)
Cc1cccc(Nc2cc(N)cc(C(=O)NC3Cc4ccccc4C3)n2)c1 [Example 97, 4-Amino-N-(2,3-dihydro-1H-inden-2-yl)-6-(m-tolylamino)picolinamide] | A (Increase in comparison with non-treated of >2.0 fold is shown as A)
Nc1cc(Nc2ccc(F)cc2)nc(C(=O)NC2Cc3ccccc3C2)c1 [Example 98, 4-Amino-N-(2,3-dihydro-1H-inden-2-yl)-6-((4-fluorophenyl)amino)picolinamide] | B (Increase in comparison with non-treated of >1.7-2.0 fold is shown as B)
N#Cc1ccccc1Nc1cc(N)cc(C(=O)NC2Cc3ccccc3C2)n1 [Example 99, 4-Amino-6-((2-cyanophenyl)amino)-N-(2,3-dihydro-1H-inden-2-yl)picolinamide] | D
COc1cccc(Nc2cc(N)cc(C(=O)NC3Cc4ccccc4C3)n2)c1 [Example 100, 4-Amino-N-(2,3-dihydro-1H-inden-2-yl)-6-((3-methoxyphenyl)amino)picolinamide] | A (Increase in comparison with non-treated of >2.0 fold is shown as A)
Nc1cc(Nc2ccccc2Cl)nc(C(=O)NC2Cc3ccccc3C2)c1 [Example 101, 4-Amino-6-((2-chlorophenyl)amino)-N-(2,3-dihydro-1H-inden-2-yl)picolinamide] | B (Increase in comparison with non-treated of >1.7-2.0 fold is shown as B)
Nc1cc(Nc2cccnc2)nc(C(=O)NC2Cc3ccccc3C2)c1 [Example 102, 4-Amino-N-(2,3-dihydro-1H-inden-2-yl)-6-(pyridin-3-ylamino)picolinamide] | C (Increase in comparison with non-treated of 1.2-1.7 fold is shown as C)
Nc1cc(Nc2ccccc2F)nc(C(=O)N2Cc3ccccc3C2)c1 [Example 103, (6-(2-Fluorophenylamino)-4-aminopyridin-2-yl)(isoindolin-2-yl)methanone] | C (Increase in comparison with non-treated of 1.2-1.7 fold is shown as C)
